The structures appear in SMILES notation. Counter-ions that a name gives are not always drawn.

The assay deals with SB.msgc-1. In words: AC50 for growth inhibition (viability) (log10 M); higher = less potent. The following applies: SB.msgc-1 (sporadic gastric cancer). In outline: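 Compound dissolved in DMSO was transferred by pintool, 23 nL per 1536 well, onto 500 hereditary or sporadic patient-derived gastric cancer cells in 5 μL medium. The series spanned 11 threefold dilutions, the highest at a final 46 μM. At 48 h, a 30 min room-temperature incubation with CellTiter-Glo preceded luminescence measurement on a ViewLux. The log half-maximal activity concentration was fitted by a four-parameter model to DMSO-normalised viability, with only high-quality curve classes accepted.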
On to `NC(=O)c1noc([C@H](CCCC2CCCCC2)CC(=O)NO)n1`, for which the “AC50 for growth inhibition (log10 M)” value was -4.93.
As for `c1cncc(CN2CCC(n3ncc4c(N5CCOCC5)nc(-c5ccc6[nH]ccc6c5)nc43)CC2)c1` [WAY-600], the figure is -4.63; as for `COC(=O)CCC1=C(C)C2=CC3=NC(=CC4=C(C)C(=C([NH]4)C=C\5N=C(C=C1[NH]2)\C(=C5C)CCC(O)=O)C=C)\C6=C\C=C(/[C@@H](C(=O)OC)[C@@]36C)C(=O)OC` [Verteporfin], -7.03.
For the molecule `CNC1[C@@H](O)C(O[C@@H]2C(O)C(O[C@H]3O[C@H]([C@@H](C)NC)CC[C@H]3N)[C@@H](N)C[C@H]2N)OC[C@]1(C)O` (stereo partly specified) [Gentamycin sulfate], the “AC50 for growth inhibition (log10 M)” value was -4.73.
Then `Cl.O[C@@H](CNC[C@H](O)[C@H]1CCc2cc(F)ccc2O1)[C@@H]1CCc2cc(F)ccc2O1` [Nebivolol], with -4.93; and `CC1COC2=C3N1\C=C(C(O)=O)/C(=O)C3=CC(=C2N4CCN(C)CC4)F` (stereo unspecified) [Ofloxacin], with -4.73.
With `O=C(Nc1ccccc1)Nc1ccc(-c2ccc(C(=O)[C@@H]3CCC[C@H]3C(=O)O)cc2)cc1`, the “AC50 for growth inhibition (log10 M)” value was -4.63.
In the case of `OC[C@H]1O[C@H](C[C@@H]1O)[N]2C=NC3=C2\N=C/NC[C@H]3O` [Pentostatin], the “AC50 for growth inhibition (log10 M)” value is -4.68.
Regarding `CN(C)CCN(C)C(=O)c1ccc(NC(=O)Nc2ccc(-c3nc(N4CCOCC4)c4ccn(CC(F)(F)F)c4n3)cc2)cc1`, the “AC50 for growth inhibition (log10 M)” value was -5.18.
Consider `Cc1nc2cnc3ccc(C#Cc4cccnc4)cc3c2n1-c1ccc(C(C)(C)C#N)cc1` [BAG-956], for which the “AC50 for growth inhibition (log10 M)” value was -5.93.
Regarding `CCc1nc(-c2cccc(C)c2)c(-c2ccnc(NC(=O)c3ccccc3)c2)s1` [TAK-715], the “AC50 for growth inhibition (log10 M)” value was -4.78.
Turning to `CN1CCCN(C(=O)c2cccc(-c3ccc(/C=C4/C(=O)Nc5ccc(Cl)cc54)o3)c2)CC1` [CX-6258], the “AC50 for growth inhibition (log10 M)” value was -4.73.
With `COc1ccc2c(c1)CC[C@@H](CN(C)CC(=O)O)[C@H]2c1ccccc1`, the “AC50 for growth inhibition (log10 M)” value is -5.63.
Then `COc1cc([C@@H]2c3cc4c(cc3[C@H](O)[C@H]3COC(=O)[C@H]23)OCO4)cc(OC)c1OC` [Picropodophyllin], with -8.43; and `COc1ccc(C(=O)c2c(C)n(CCN3CCOCC3)c3cc(I)ccc23)cc1` [AM-630], with -4.63; and `CC(C)(C)[C@]1(O)C[C@@H]2OC(=O)C[C@@]23C(=O)O[C@@H]2OC(=O)[C@H](O)C213` (stereo partly specified) [Bilobalide], with -4.93.
As for `O=C(O)CCCc1ccc(N(CCCl)CCCl)cc1` [Chlorambucil], the figure is -5.33.
As for `CCC[S+](=O)([O-])Nc1ccc(F)c(C(=O)c2c[nH]c3ncc(Cl)cc23)c1F` [PLX-4720], the figure is -4.83.
Take `N#CC[C@H](C1CCCC1)n1cc(-c2ncnc3[nH]ccc23)cn1` [Ruxolitinib]: the “AC50 for growth inhibition (log10 M)” value is -4.73.
Then `COc1cc2c(cc1OC)CC(=O)N(CCCN(C)C[C@H]1Cc3cc(OC)c(OC)cc31)CC2.Cl` [Ivabradine hydrochloride], with -4.58; and `Nc1nc(N)c2nc(-c3cccc(O)c3)c(-c3cccc(O)c3)nc2n1`, with -5.18.
As for `C\C1=C(\C=C(\C#N)C(=O)N1)C2=CC=NC=C2` [Milrinone], the figure is -4.73; as for `CC[C@]12\C=C/CN3CC[C@]4([C@@H](N(C)C5=CC(=C(C=C45)[C@]6(C[C@H]7C[C@H](CN(C7)CC8=C6[NH]C9=C8C=CC=C9)C(C)(F)F)C(=O)OC)OC)[C@](O)([C@@H]1OC(C)=O)C(=O)OC)[C@H]23` [Vinflunine], -7.83; as for `C=C(C)[C@@H]1CC[C@]2(C(=O)O)CC[C@]3(C)[C@H](CC[C@@H]4[C@@]5(C)CC[C@H](O)C(C)(C)[C@@H]5CC[C@]43C)[C@@H]12` [Betulinic acid], -4.83.
Take `CCC[C@@H](NC(=O)[C@@H]1[C@H]2CCC[C@H]2CN1C(=O)[C@@H](NC(=O)[C@@H](NC(=O)c1cnccn1)C1CCCCC1)C(C)(C)C)C(=O)C(=O)NC1CC1` [Telaprevir]: the “AC50 for growth inhibition (log10 M)” value is -4.78.
As to `C/C(=N\NC(=S)N1CCC1)c1ccccn1`, the “AC50 for growth inhibition (log10 M)” value is -5.73.
In the case of `O=C1NC(=O)/C(=C\c2ccc(-c3ccc(F)cc3)o2)S1`, the “AC50 for growth inhibition (log10 M)” value was -4.78.
As for `CN1\N=C(N)/C2=C[N]([C@@H]3O[C@H](CO[P](O)(O)=O)[C@@H](O)[C@H]3O)C4=C2C1=NC=N4` [Triciribine phosphate], the “AC50 for growth inhibition (log10 M)” value is -6.53.
As to `CNc1nc(-c2ccc3c(N)n[nH]c3c2)cc(N2C[C@@H](C(=O)NC3CCCCC3)CC[C@H]2C)n1`, the “AC50 for growth inhibition (log10 M)” value is -4.68.
Then `C[N]1C=C(C=N1)C2=CC=C3N=CC\4=C(N(C(=O)\C=C4)C5=CC6=C(CCN6C(=O)C=C)C=C5)C3=C2`, with -4.98; and `O=C(CCCN1CCN(c2ccc(F)cc2)CC1)NC1c2ccccc2CSc2ccccc21` (stereo unspecified) [Monatepil], with -5.23; and `CC1=NN(c2ccc(C)c(C)c2)C(=O)/C1=N/Nc1cccc(-c2cccc(C(=O)O)c2)c1O` [Eltrombopag olamine], with -4.83.
Then `CC(C)[C@H]1C(=O)N[C@H](CO)Cc2c[nH]c3cccc(c23)N1C` [(-)-Indolactam V], with -6.43; and `COc1cc(N2CCC(N3CCN(C)CC3)CC2)ccc1Nc1ncnc(Nc2ccccc2[S+](=O)([O-])C(C)C)n1` [ASP-3026], with -4.88.
As for `CN1CCN(Cc2ccc(NC(=O)Nc3ccc(Oc4cc(NC(=O)C5CC5)ncn4)cc3)cc2C(F)(F)F)CC1` [WS3], the figure is -5.93; as for `COC(=O)Nc1ccc(-c2nc(N3CCOCC3)c3cnn(C4CCN(C(=O)OC)CC4)c3n2)cc1` [WYE-354], -6.03; as for `Cc1cn([C@H]2C=C[C@@H](CO)O2)c(=O)[nH]c1=O` [Stavudine], -4.37.
Take `OC(=O)C1=CC=C(NC2=NC3=C(C\N=C(/C4=CC(=CC=C34)Cl)C5=C(F)C=CC=C5F)C=N2)C=C1` [MLN-8054]: the “AC50 for growth inhibition (log10 M)” value was -4.78.
As for `NC12CC3CC(CC(C3)C1)C2` [Amantadine hydrochloride], the figure is -4.68.
As for `c1ccc(-c2nn3c(c2-c2ccnc4cc(OCCN5CCOCC5)ccc24)CCC3)nc1`, the figure is -4.68.
For `CCCCCCCCCCCC/1=C(O)/C(=O)/C=C(O)\C1=O` [Embelin], the “AC50 for growth inhibition (log10 M)” value is -6.03.
Then `Cc1cc2c(cc1C1(c3ccc(C(=O)O)cn3)CC1)C(C)(C)CCC2(C)C`, with -4.73; and `Cc1cc(SCc2sc(-c3ccc(C(F)(F)F)c(F)c3)nc2C)ccc1OCC(=O)O` [GW-0742], with -4.78.
Take `CC(NC1=CC=CC=C1)C\2=C\C(=C/N3C(=O)\C=C(/N=C23)N4CCOCC4)C` (stereo unspecified) [TGX-221]: the “AC50 for growth inhibition (log10 M)” value was -5.58.
Then `Nc1cccc([S+](=O)([O-])N2CCCN([S+](=O)([O-])c3ccc4c(c3)OCCO4)CC2)c1`, with -4.88.
As to `CN(C)[C@H]\1[C@@H]2[C@@H](O)[C@@H]\3C(=C)C4=C(C(=CC=C4)O)C(=O)C3=C(\O)[C@@]2(O)C(=O)\C(=C1O)C(N)=O` [Methacycline hydrochloride], the “AC50 for growth inhibition (log10 M)” value is -4.73.
As for `COc1cc(Nc2c(C#N)cnc3cc(OCCCN4CCN(C)CC4)c(OC)cc23)c(Cl)cc1Cl` [Bosutinib], the figure is -5.58; as for `CN(C)CCN(Cc1ccc(Cl)cc1)c1ccccn1.Cl` [Halopyramine], -4.68; as for `Nc1nc(N)c2nc(CNc3ccc(C(=O)NC(CCC(=O)O)C(=O)O)cc3)cnc2n1` (stereo unspecified) [Aminopterin], -7.63.
Then `CC1(COc2ccc3c(c2)ncn3-c2ccc3cccc(N4CCC(N)CC4)c3n2)COC1` [Crenolanib], with -7.38.
With `O=C(NOC[C@H](O)CO)c1ccc(F)c(F)c1Nc1ccc(I)cc1F`, the “AC50 for growth inhibition (log10 M)” value was -6.33.
Then `CCOC(=O)Nc1ccc(NCc2ccc(F)cc2)cc1N` [Retigabine], with -4.83.
`NC(=O)[C@@H](CCC(F)(F)F)N(Cc1ccc(-c2ncon2)cc1F)[S+](=O)([O-])c1ccc(Cl)cc1` [Avagacestat]: the “AC50 for growth inhibition (log10 M)” value was -4.83.
For the molecule `C[C@H](Cc1ccc(O)c(O)c1)[C@@H](C)Cc1ccc(O)c(O)c1` [Masoprocol], the “AC50 for growth inhibition (log10 M)” value is -4.83.
On to `OC1=CC2=C(C=C1)C(=O)\C(=C(O2)\C3=CC(=C(O)C=C3)O)O` [Fisetin], for which the “AC50 for growth inhibition (log10 M)” value was -4.63.
Turning to `O=NN(CCCl)C(=O)NC1CCCCC1` [Lomustine], the “AC50 for growth inhibition (log10 M)” value is -4.83.
In the case of `Cc1onc(-c2ccccc2Cl)c1C(=O)N[C@@H]1C(=O)N2[C@@H]1SC(C)(C)[C@@H]2C(=O)[O-]` [Sodium cloxacillin], the “AC50 for growth inhibition (log10 M)” value was -5.48.
Take `CC1=CC=C2N=C(NC(=O)CS\C3=N\C4=C(\SCC4)C(=O)N3C5=CC=CC=C5)SC2=C1` [IWP-2]: the “AC50 for growth inhibition (log10 M)” value was -5.18.
On to `Cc1nnc(N[S+](=O)([O-])c2ccc(N)cc2)s1` [Sulfamethizole], for which the “AC50 for growth inhibition (log10 M)” value was -5.43.
For the molecule `CNC(=O)c1ccc2c(c1)NC(=O)/C2=C(\Nc1cccc(CN(C)C)c1)c1ccccc1`, the “AC50 for growth inhibition (log10 M)” value was -4.93.
As for `OCCN(CCO)c1nc(N2CCCCC2)c2nc(N(CCO)CCO)nc(N3CCCCC3)c2n1` [Dipyridamole], the figure is -4.68.

The values above are taken from the supplement of paper PMC5412046.
